According to PubChem BioAssay (NCI):
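Protocol summary: plate cells (96-well), add compound at 5 concentrations, incubate 48 h, interpolate endpoints linearly. At the TGI there is no net growth.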

How the values were obtained:
Test in all cases: NCI tumour cell line growth inhibition, 48 h
786-0 renal = test system: 786-0 renal
A498 renal = test system: A498 renal
A549 NSCLC = test system: A549 NSCLC
ACHN renal = test system: ACHN renal
BT-549 breast = test system: BT-549 breast
CAKI-1 renal = test system: CAKI-1 renal
COLO 205 colon = test system: COLO 205 colon
DU-145 prostate = test system: DU-145 prostate
EKVX NSCLC = test system: EKVX NSCLC
HCC-2998 colon = test system: HCC-2998 colon
HCT-116 colon = test system: HCT-116 colon
HCT-15 colon = test system: HCT-15 colon
HOP-62 NSCLC = test system: HOP-62 NSCLC
HOP-92 NSCLC = test system: HOP-92 NSCLC
HS 578T breast = test system: HS 578T breast
HT29 colon = test system: HT29 colon
IGROV1 ovarian = test system: IGROV1 ovarian
K-562 leukemia = test system: K-562 leukemia
KM12 colon = test system: KM12 colon
LOX IMVI melanoma = test system: LOX IMVI melanoma
M14 melanoma = test system: M14 melanoma
MALME-3M melanoma = test system: MALME-3M melanoma
MCF7 breast = test system: MCF7 breast
MDA-MB-231 breast = test system: MDA-MB-231 breast
MDA-MB-435 = test system: MDA-MB-435
MDA-N = test system: MDA-N
MOLT-4 leukemia = test system: MOLT-4 leukemia
NCI-H23 lung = test system: NCI-H23 lung
NCI-H460 lung = test system: NCI-H460 lung
NCI-H522 lung = test system: NCI-H522 lung
NCI/ADR-RES ovarian = test system: NCI/ADR-RES ovarian
OVCAR-3 ovarian = test system: OVCAR-3 ovarian
OVCAR-4 ovarian = test system: OVCAR-4 ovarian
OVCAR-5 ovarian = test system: OVCAR-5 ovarian
OVCAR-8 ovarian = test system: OVCAR-8 ovarian
PC-3 prostate = test system: PC-3 prostate
RPMI-8226 leukemia = test system: RPMI-8226 leukemia
RXF 393 renal = test system: RXF 393 renal
SF-268 CNS = test system: SF-268 CNS
SF-295 CNS = test system: SF-295 CNS
SF-539 CNS = test system: SF-539 CNS
SK-MEL-2 melanoma = test system: SK-MEL-2 melanoma
SK-MEL-28 melanoma = test system: SK-MEL-28 melanoma
SK-MEL-5 melanoma = test system: SK-MEL-5 melanoma
SK-OV-3 ovarian = test system: SK-OV-3 ovarian
SN12C renal = test system: SN12C renal
SNB-19 CNS = test system: SNB-19 CNS
SNB-75 CNS = test system: SNB-75 CNS
SR leukemia = test system: SR leukemia
SW-620 colon = test system: SW-620 colon
T-47D breast = test system: T-47D breast
TK-10 renal = test system: TK-10 renal
U251 CNS = test system: U251 CNS
UACC-257 melanoma = test system: UACC-257 melanoma
UACC-62 melanoma = test system: UACC-62 melanoma
UO-31 renal = test system: UO-31 renal
CCRF-CEM leukemia = test system: CCRF-CEM leukemia
HL-60(TB) leukemia = test system: HL-60(TB) leukemia
NCI-H226 lung = test system: NCI-H226 lung

Measured: TGI

CC(CC(=O)O)(CC(=O)O)C(=O)O
> 100 µM: 786-0 renal | A498 renal | A549 NSCLC | ACHN renal | BT-549 breast | CAKI-1 renal | COLO 205 colon | DU-145 prostate | EKVX NSCLC | HCC-2998 colon | HCT-116 colon | HCT-15 colon | HOP-62 NSCLC | HOP-92 NSCLC | HS 578T breast | HT29 colon | IGROV1 ovarian | K-562 leukemia | KM12 colon | LOX IMVI melanoma | M14 melanoma | MALME-3M melanoma | MCF7 breast | MDA-MB-231 breast | MDA-MB-435 | MDA-N | MOLT-4 leukemia | NCI-H23 lung | NCI-H460 lung | NCI-H522 lung | NCI/ADR-RES ovarian | OVCAR-3 ovarian | OVCAR-4 ovarian | OVCAR-5 ovarian | OVCAR-8 ovarian | PC-3 prostate | RPMI-8226 leukemia | RXF 393 renal | SF-268 CNS | SF-295 CNS | SF-539 CNS | SK-MEL-2 melanoma | SK-MEL-28 melanoma | SK-MEL-5 melanoma | SK-OV-3 ovarian | SN12C renal | SNB-19 CNS | SNB-75 CNS | SR leukemia | SW-620 colon | T-47D breast | TK-10 renal | U251 CNS | UACC-257 melanoma | UACC-62 melanoma | UO-31 renal

C=C(CCOC)CCC1CCCCC(=C)C1=O (stereo unspecified)
> 100 µM: 786-0 renal | A498 renal | A549 NSCLC | ACHN renal | BT-549 breast | CAKI-1 renal | CCRF-CEM leukemia | COLO 205 colon | DU-145 prostate | EKVX NSCLC | HCC-2998 colon | HCT-116 colon | HCT-15 colon | HL-60(TB) leukemia | HOP-62 NSCLC | HS 578T breast | HT29 colon | IGROV1 ovarian | K-562 leukemia | KM12 colon | LOX IMVI melanoma | M14 melanoma | MALME-3M melanoma | MCF7 breast | MDA-MB-231 breast | MDA-MB-435 | MDA-N | MOLT-4 leukemia | NCI-H226 lung | NCI-H23 lung | NCI-H460 lung | NCI-H522 lung | NCI/ADR-RES ovarian | OVCAR-3 ovarian | OVCAR-4 ovarian | OVCAR-5 ovarian | OVCAR-8 ovarian | PC-3 prostate | RPMI-8226 leukemia | RXF 393 renal | SF-268 CNS | SF-295 CNS | SK-MEL-2 melanoma | SK-MEL-28 melanoma | SK-MEL-5 melanoma | SK-OV-3 ovarian | SN12C renal | SNB-19 CNS | SNB-75 CNS | SR leukemia | SW-620 colon | T-47D breast | U251 CNS | UACC-62 melanoma | UO-31 renal
